Assay results from US20120029187A1, “HALOALKYLSULFONANILIDE DERIVATIVE” (Nissan Chemical Industries, Ltd., priority 2009, published 2012).

Columns and labels:
Format in all cases: in vivo
[1] = system: bulrush; assay: Test Example 2: herbicidal effects during the vegetation period under submerged conditions; conditions: treatment during the vegetation period under submerged conditions; dose 2.52 g/a
Summary of the method: (§1)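 Barnyardgrass, bulrush and ducksalad were co-sown in alluvial soil flooded to 4 cm and grown in a greenhouse at 25 to 30° C. At the 1- or 2-leaf stage, water-diluted emulsifiable concentrates went onto the water surface at set doses (g/a). Herbicidal effect was scored three weeks later on a graded scale.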

[2] = system: barnyardgrass; assay: as above; conditions: treatment during the vegetation period under submerged conditions; dose 2.52 g/a
Summary of the method: as §1

[3] = system: ducksalad; assay: as above; conditions: treatment during the vegetation period under submerged conditions; dose 2.52 g/a
Summary of the method: as §1

[4] = system: transplanted rice; assay: Test Example 1: preemergence treatment under submerged conditions, effect on crop; conditions: dose 2.52 g/a
Summary of the method: (§2)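 Scoring 0 (<5% mortality) to 5 (≥90%) was done three weeks after preemergence application to the water surface of submerged (4 cm) alluvial soil, doses given as g per are. Weeds were seeded and 2.5-leaf rice transplanted on the treatment day; greenhouse at 25–30 °C.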

[5] = system: redroot pigweed; assay: Test Example 4: herbicidal effect in foliage treatment; conditions: dose 3.2 g/a, three weeks after the application
Summary of the method: (§3)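 14-day greenhouse-grown plants (25–30° C) sprayed on foliage with diluted EC; dose as g/a; effect graded after 3 weeks.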

[6] = system: common ragweed; assay: as above; conditions: dose 3.2 g/a, three weeks after the application
Summary of the method: as §3

[7] = system: large crabgrass; assay: as above; conditions: dose 3.2 g/a, three weeks after the application
Summary of the method: as §3

[8] = system: giant foxtail; assay: as above; conditions: dose 3.2 g/a, three weeks after the application
Summary of the method: as §3

[9] = system: velvetleaf; assay: as above; conditions: dose 3.2 g/a, three weeks after the application
Summary of the method: as §3

[10] = system: barnyardgrass; assay: as above; conditions: dose 3.2 g/a, three weeks after the application
Summary of the method: as §3

[11] = system: beadstraw; assay: as above; conditions: dose 3.2 g/a, three weeks after the application
Summary of the method: as §3

[12] = system: common lambsquater; assay: as above; conditions: dose 3.2 g/a, three weeks after the application
Summary of the method: as §3

[13] = system: posumbu knotweed; assay: as above; conditions: dose 3.2 g/a, three weeks after the application
Summary of the method: as §3

[14] = system: wild oat; assay: as above; conditions: dose 3.2 g/a, three weeks after the application
Summary of the method: as §3

[15] = system: Italian ryegrass; assay: as above; conditions: dose 3.2 g/a, three weeks after the application
Summary of the method: as §3

[16] = system: water foxtail; assay: as above; conditions: dose 3.2 g/a, three weeks after the application
Summary of the method: as §3

[17] = system: common chickweed; assay: as above; conditions: dose 3.2 g/a, three weeks after the application
Summary of the method: as §3

[18] = system: redroot pigweed; assay: Test Example 3: herbicidal effects in soil treatment; conditions: dose 3.2 g/a
Summary of the method: (§4)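 Seeds were sown in sterilized diluvial soil and covered with about 1.5 cm of soil. Compounds, formulated as emulsifiable concentrates and diluted with water, were sprayed evenly over the soil surface at set doses in g/a. Herbicidal effect was scored on a rating scale three weeks later.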

[19] = system: common ragweed; assay: as above; conditions: dose 3.2 g/a
Summary of the method: as §4

[20] = system: large crabgrass; assay: as above; conditions: dose 3.2 g/a
Summary of the method: as §4

[21] = system: giant foxtail; assay: as above; conditions: dose 3.2 g/a
Summary of the method: as §4

[22] = system: velvetleaf; assay: as above; conditions: dose 3.2 g/a
Summary of the method: as §4

[23] = system: barnyardgrass; assay: as above; conditions: dose 3.2 g/a
Summary of the method: as §4

[24] = system: beadstraw; assay: as above; conditions: dose 3.2 g/a
Summary of the method: as §4

[25] = system: common lambsquater; assay: as above; conditions: dose 3.2 g/a
Summary of the method: as §4

[26] = system: posumbu knotweed; assay: as above; conditions: dose 3.2 g/a
Summary of the method: as §4

[27] = system: wild oat; assay: as above; conditions: dose 3.2 g/a
Summary of the method: as §4

[28] = system: Italian ryegrass; assay: as above; conditions: dose 3.2 g/a
Summary of the method: as §4

[29] = system: water foxtail; assay: as above; conditions: dose 3.2 g/a
Summary of the method: as §4

[30] = system: common chickweed; assay: as above; conditions: dose 3.2 g/a
Summary of the method: as §4

[31] = system: bulrush; assay: Test Example 1: herbicidal effects in preemergence treatment under submerged conditions; conditions: dose 2.52 g/a
Summary of the method: as §2

[32] = system: barnyardgrass; assay: as above; conditions: dose 2.52 g/a
Summary of the method: as §2

[33] = system: ducksalad; assay: as above; conditions: dose 2.52 g/a
Summary of the method: as §2

Structure (SMILES) | B: bulrush, herbicidal effect (evaluation scale 0-5) [1] | A: barnyardgrass, herbicidal effect (evaluation scale 0-5) [2] | C: ducksalad, herbicidal effect (evaluation scale 0-5) [3] | a: transplanted rice, effect on crop (evaluation scale 0-5) [4] | K: redroot pigweed, herbicidal effect [5] | J: common ragweed, herbicidal effect [6] | D: large crabgrass, herbicidal effect [7] | E: giant foxtail, herbicidal effect [8] | I: velvetleaf, herbicidal effect [9] | A: barnyardgrass, herbicidal effect [10] | O: beadstraw, herbicidal effect [11] | L: common lambsquater, herbicidal effect [12] | M: posumbu knotweed, herbicidal effect [13] | F: wild oat, herbicidal effect [14] | H: Italian ryegrass, herbicidal effect [15] | G: water foxtail, herbicidal effect [16] | N: common chickweed, herbicidal effect [17] | herbicidal effect, K: redroot pigweed [18] | herbicidal effect, J: common ragweed [19] | herbicidal effect, D: large crabgrass [20] | other results
CCOC(=O)N(c1ccccc1CN1COCN(C)C1=O)S(=O)(=O)C(F)(F)F [IV-2] | 5 (mortality of 90% or above (nearly complete death)) | 5 (mortality of 90% or above (nearly complete death)) | 4 (mortality of at least 70% and less than 90%) | 0 (mortality of less than 5% (almost ineffective)) | 0 (mortality of less than 5% (almost ineffective)) | 1 (mortality of at least 5% and less than 20%) | 5 (mortality of 90% or above (nearly complete death)) | 3 (mortality of at least 40% and less than 70%) | 3 (mortality of at least 40% and less than 70%) | 4 (mortality of at least 70% and less than 90%) | 0 (mortality of less than 5% (almost ineffective)) | 0 (mortality of less than 5% (almost ineffective)) | 0 (mortality of less than 5% (almost ineffective)) | 0 (mortality of less than 5% (almost ineffective)) | 0 (mortality of less than 5% (almost ineffective)) | 5 (mortality of 90% or above (nearly complete death)) | 0 (mortality of less than 5% (almost ineffective)) | 0 (mortality of less than 5% (almost ineffective)) | 0 (mortality of less than 5% (almost ineffective)) | 5 (mortality of 90% or above (nearly complete death)) | herbicidal effect, E: giant foxtail [21]: 4 (mortality of at least 70% and less than 90%); herbicidal effect, I: velvetleaf [22]: 2 (mortality of at least 20% and less than 40%); herbicidal effect, A: barnyardgrass [23]: 5 (mortality of 90% or above (nearly complete death)); herbicidal effect, O: beadstraw [24]: 0 (mortality of less than 5% (almost ineffective)); herbicidal effect, L: common lambsquater [25]: 0 (mortality of less than 5% (almost ineffective)); herbicidal effect, M: posumbu knotweed [26]: 0 (mortality of less than 5% (almost ineffective)); herbicidal effect, F: wild oat [27]: 0 (mortality of less than 5% (almost ineffective)); herbicidal effect, H: Italian ryegrass [28]: 2 (mortality of at least 20% and less than 40%); herbicidal effect, G: water foxtail [29]: 5 (mortality of 90% or above (nearly complete death)); herbicidal effect, N: common chickweed [30]: 0 (mortality of less than 5% (almost ineffective)); B: bulrush, herbicidal effect (evaluation scale 0-5) [31]: 5 (mortality of 90% or above (nearly complete death)); A: barnyardgrass, herbicidal effect (evaluation scale 0-5) [32]: 5 (mortality of 90% or above (nearly complete death)); C: ducksalad, herbicidal effect (evaluation scale 0-5) [33]: 3 (mortality of at least 40% and less than 70%)
CCOC(=O)N(c1ccccc1CN1COCN(CC)C1=O)S(=O)(=O)C(F)(F)F [IV-6] | 5 (mortality of 90% or above (nearly complete death)) | 5 (mortality of 90% or above (nearly complete death)) | 5 (mortality of 90% or above (nearly complete death)) | 0 (mortality of less than 5% (almost ineffective)) | 0 (mortality of less than 5% (almost ineffective)) | 3 (mortality of at least 40% and less than 70%) | 4 (mortality of at least 70% and less than 90%) | 4 (mortality of at least 70% and less than 90%) | 5 (mortality of 90% or above (nearly complete death)) | 4 (mortality of at least 70% and less than 90%) | 4 (mortality of at least 70% and less than 90%) | 3 (mortality of at least 40% and less than 70%) | 0 (mortality of less than 5% (almost ineffective)) | 0 (mortality of less than 5% (almost ineffective)) | 2 (mortality of at least 20% and less than 40%) | 5 (mortality of 90% or above (nearly complete death)) | 4 (mortality of at least 70% and less than 90%) | 1 (mortality of at least 5% and less than 20%) | 0 (mortality of less than 5% (almost ineffective)) | 5 (mortality of 90% or above (nearly complete death)) | herbicidal effect, E: giant foxtail [21]: 5 (mortality of 90% or above (nearly complete death)); herbicidal effect, I: velvetleaf [22]: 5 (mortality of 90% or above (nearly complete death)); herbicidal effect, A: barnyardgrass [23]: 5 (mortality of 90% or above (nearly complete death)); herbicidal effect, O: beadstraw [24]: 4 (mortality of at least 70% and less than 90%); herbicidal effect, L: common lambsquater [25]: 0 (mortality of less than 5% (almost ineffective)); herbicidal effect, M: posumbu knotweed [26]: 0 (mortality of less than 5% (almost ineffective)); herbicidal effect, F: wild oat [27]: 0 (mortality of less than 5% (almost ineffective)); herbicidal effect, H: Italian ryegrass [28]: 0 (mortality of less than 5% (almost ineffective)); herbicidal effect, G: water foxtail [29]: 5 (mortality of 90% or above (nearly complete death)); herbicidal effect, N: common chickweed [30]: 4 (mortality of at least 70% and less than 90%); B: bulrush, herbicidal effect (evaluation scale 0-5) [31]: 5 (mortality of 90% or above (nearly complete death)); A: barnyardgrass, herbicidal effect (evaluation scale 0-5) [32]: 5 (mortality of 90% or above (nearly complete death)); C: ducksalad, herbicidal effect (evaluation scale 0-5) [33]: 5 (mortality of 90% or above (nearly complete death))
